Data from patent US20220296669A1, “NOVEL COMPOSITIONS AND USES THEREOF” (priority 2019, published 2022).

Columns and labels:
Pseudomonas aeruginosa = assay: Gram-negative bacterial killing efficiency on coated surfaces, scanning electron microscopy; type: cell-based; details: with PLL as intermediate layer vs without PLL and other parts of collagen VI; for killing of Pseudomonas aeruginosa on collagen I scaffolds: collagen I scaffolds 1 mm / 2 mm, FIG. 9; for killing of Pseudomonas aeruginosa on titanium surfaces: titanium surface, FIG. 5
Description: (§1) Collagen I scaffolds and titanium surfaces were coated with collagen VI microfibrils, each of collagen VI alpha 1-3 chains and the bioactive collagen VI peptides GVR28, FYL25, FFL25, VTT30, and SFV33 as described in Examples 1 and 2 above, respectively.
(§2) Killing efficiency of the gram-negative Pseudomonas aeruginosa bacteria and the gram-positive Staphylococcus aureus were assessed by scanning electron microscopy. For killing efficiency and scanning electron microscopy experiments, titanium scaffold discs with a size of 5 mm and a thickness of 0.25 mm, and collagen I scaffold discs with a size of 5 mm and a thickness of 1 mm (thin scaffold) or 2 mm (thick scaffold), respectively, were punched out and coated with PLL as described in Examples 1 and 2 above. They were subsequently incubated with 500 μL of bacterial suspension (5×10^8 cfu/ml bacteria) and incubated for 2 hours at 37° C. in a humid atmosphere containing 5% CO2.
(§3) The discs were then prepared for scanning electron microscopy. In short, samples were incubated overnight at 4° C. with fixation buffer (0.15M sodium cacodylate, pH 7.4, containing 2.5% v/v glutaraldehyde) and subsequently washed with cacodylate buffer (0.15M sodium cacodylate, pH 7.4), followed by a standard dehydration series with ethanol-water mixtures. Specimens were then dried in liquid CO2, using ethanol as an intermediate solvent. Samples were mounted on aluminium discs and coated with 20 nm gold/palladium. Finally, samples were investigated with an XL 30 FEG scanning electron microscope and images were processed by AnalySIS ITEM software. Viable and non-viable bacteria were directly identified and quantified under in the scanning electron microscope due to their structural differences.

[1] = 131-iodine coating efficiency (binding) assay on titanium surfaces with/without PLL precoating; details: with PLL as intermediate layer vs without PLL / controls
Description: Materials—Titanium discs with a diameter and thickness of 5 mm and 0.25 mm, respectively, and with a maximum average roughness (Ra) of 0.8 μm, were punched out from a commercially available titanium foil (Alfa Aesar GmbH & Co. KG, Karlsruhe, Germany). ε-poly-L-lysine hydrobromide (PLL, 30,000-150,000 g/mol) was purchased from Sigma-Aldrich, St. Louis, USA. Collagen VI and its derived peptides were prepared as described in [18]. LL-37 was a kind gift of Dr. Artur Schmidtchen, University of Lund. NAT26, HKH20, GGL27 were kind gifts of Dr. Inga-Maria Frick, University of Lund. α defensins 3-6 and β defensins 1-4 were kind gifts of Dr. Arne Egesten, University of Lund. Proteins were radiolabeled with 131-iodine according to standard protocols prior to coating assays on collagen scaffold surfaces.
Biomaterial surface coating with PLL—Titanium discs were degreased with chloroform and 97% ethanol, followed by rinsing with distilled water, and air-drying at room temperature. Subsequently, prior to collagen coating, 150 μl poly-L-lysine hydrobromide (70,000-150,000 g/mol, Sigma-Aldrich, St. Louis, USA, 0.2 mg/ml) were applied on desired titanium discs by incubation at 60° C. for 2 hours. Afterwards, the titanium was washed twice in distilled water to remove unbound PLL, air-dried and stored at room temperature.
(§4) Biomaterial surface coating with bioactive collagen VI molecules—Titanium discs, after prior treatment with PLL, were put into 24-well cell culture plates (TPP, Trasadingen, Switzerland). They were coated by incubation with 150 μl collagen type VI peptides (concentration 3 μM), at 4° C. for 2 hours, followed by rinsing with distilled water and air-drying. The coating efficiencies of the different biomolecules were assessed by determining the ratio between bound and free 131-iodine radioactivity associated with titanium discs by determining radioactivity as cpm values in a γ-counter.

Staphylococcus aureus = assay: Gram-positive bacterial killing efficiency on coated surfaces, scanning electron microscopy; type: cell-based; details: with PLL as intermediate layer vs without PLL and other parts of collagen VI; for killing of Staphylococcus aureus on collagen I scaffolds: collagen I scaffolds 1 mm / 2 mm, FIG. 10; for killing of Staphylococcus aureus on titanium surfaces: titanium surface, FIG. 6
Description: as §1, §2, §3

collagen I scaffolds = assay: 131-iodine coating efficiency (binding) assay on collagen I scaffolds with/without PLL precoating; details: with PLL as intermediate layer vs without PLL / controls, 1 mm thin and 2 mm thick scaffolds
Description: Materials—MDS Collagen was obtained from MedSkin Solutions Dr. Suwelack A G (MDS). 1 mm thickness refers to thin, and 2 mm thickness refers to thick collagen scaffold, respectively. c-poly-L-lysine hydrobromide (PLL, 30 000-150 000 g/mol) was purchased from Sigma-Aldrich, St. Louis, USA. Collagen VI and its derived peptides were prepared as described in [18]. LL-37 was a kind gift of Dr. Artur Schmidtchen, University of Lund. NAT26, HKH20, GGL27 were kind gifts of Dr. Inga-Maria Frick, University of Lund. α defensins 3-6 and β defensins 1-4 were kind gifts of Dr. Arne Egesten, University of Lund. Proteins were radiolabeled with 131-iodine according to standard protocols prior to coating assays on collagen scaffold surfaces.
Biomaterial surface coating with PLL—collagen scaffold discs with a diameter of 5 mm and thickness of 2 mm (thick scaffold) and 1 mm (thin scaffold), respectively, were punched out from a larger sheet (approximately 10 cm×10 cm). Prior to collagen coating, 150 μl poly-L-lysine hydrobromide solution (0.2 mg/ml) were applied on the collagen scaffold discs by incubation at 60° C. for 2 h. Afterwards the discs were washed twice in distilled water to remove unbound PLL, air-dried and stored at room temperature.
as §4, with “molecules—collagen scaffold” for “molecules—Titanium”, “μl bovine collagen VI microfibrils (concentration 15 μM), or with 150 μl” for “μl”, “μM), or with […] LL-37, NAT26, HKH20, GGL27, α defensins 3-6 and β defensins 1-4” for “μM),”, “h,” for “hours,”, “collagen scaffolds” for “titanium discs”

[2] = system: Human Dermal Fibroblasts, adult (HDFa); assay: Fibroblast adherence on coated surfaces, scanning electron microscopy; type: cell-based; details: with PLL as intermediate layer vs without PLL and other parts of collagen VI, measured in cells/mm^2; for fibroblast adherence on collagen I scaffolds: FIG. 11; for fibroblast adherence on titanium surfaces: titanium surface, FIG. 7
Description: (§5) Collagen I scaffolds and titanium surfaces were coated with collagen VI microfibrils, each of collagen VI alpha 1-3 chains and the bioactive collagen VI peptides GVR28, FYL25, FFL25, VTT30, and SFV33 as described in Examples 1 and 2 above.
(§6) Adherence of fibroblasts or keratinocytes was assessed by scanning electron microscopy.
(§7) Cells and culture conditions—Keratinocytes (Human Epidermal Keratinocytes, adult (HEKa), C-005-5C, Gibco) and fibroblasts (Human Dermal Fibroblasts, adult (HDFa), C0135C, Gibco) were purchased from Thermo Fisher Scientific, Waltham, USA. Cryopreserved cells were thawed according to the manufacturer's protocol and seeded on three 75 mL tissue culture flasks, each containing 15 mL of keratinocyte basal medium (KBM; KBM Gold, Lonza Group AG, Basel, Switzerland). The medium was supplemented with transferrin, recombinant human epidermal growth factor (rhEGF), bovine pituitary extract (BPE), antibiotics (Gentamycin: GA-1000), insulin, epinephrine and hydrocortisone (PeproTech, New Jersey, USA). For fibroblasts, complete growth medium consisting of Dulbecco's modified eagle medium (D-MEM) with 100 mM sodium pyruvate (PAA Laboratories, Pasching, Austria), supplemented with 10% fetal bovine serum (FBS) (PAA Laboratories, Pasching, Austria) and 2 mM L-glutamine (Invitrogen, Carlsbad, USA), was used. Medium was changed every day and substituted with additional rhEGF at a final dilution of 1:1000. The cells were incubated for seven days until they reached confluency. The cells were harvested by trypsinization (TrypLE™ Select (1x), Life Technologies Corporation, Carlsbad, USA) and transferred into freezing medium, containing 1% BSA (Sigma Aldrich, St. Louis, USA) and 10% DMSO (Sigma-Aldrich, St. Louis, USA). 1 mL aliquots of the cell suspension were transferred into cryotubes. The cryotubes were transferred to the freezer at −80° C. for 24 hours and then finally stored in liquid nitrogen until further use.
(§8) Cell attachment—Cells were gently thawed and counted in a hemocytometer using trypan blue (Fisher Scientific, Waltham, USA) to estimate the number of live/dead cells. They were finally diluted in appropriate media to final cell concentrations of 16700 viable cells/mL. 300 μL cell solution were added on top of punched out titanium or collagen I scaffold samples, followed by incubation at 37° C. for 1 hour. Growth medium was removed and the cells were gently washed twice with PBS. The cells were then fixed by the addition of 4% formaldehyde in PBS, followed by incubation at 4° C. for 20 minutes. Finally, cells were rinsed three times in PBS and stored in 3 mL PBS until further evaluation by scanning electron microscopy.

[3] = system: Human Epidermal Keratinocytes, adult (HEKa); assay: Keratinocyte adherence on coated surfaces, scanning electron microscopy; type: cell-based; details: with PLL as intermediate layer vs without PLL and other parts of collagen VI; for keratinocyte adherence on collagen I scaffolds: FIG. 12; for keratinocyte adherence on titanium surfaces: titanium surface, FIG. 8
Description: as §5, §6, §7, §8

[4] = listed as collagen type VI alpha-3 chain

Row | Substance | killing of Pseudomonas aeruginosa on collagen I scaffolds (Pseudomonas aeruginosa) | killing of Pseudomonas aeruginosa on titanium surfaces (Pseudomonas aeruginosa) | coating efficiency (binding) on titanium surfaces [1] | coating efficiency (binding) on titanium surfaces [1, 4] | killing of Staphylococcus aureus on collagen I scaffolds (Staphylococcus aureus) | killing of Staphylococcus aureus on titanium surfaces (Staphylococcus aureus) | coating efficiency (binding) on collagen I scaffolds (collagen I scaffolds) | coating efficiency (binding) on collagen I scaffolds (collagen I scaffolds; [4]) | fibroblast adherence on collagen I scaffolds [2] | fibroblast adherence on titanium surfaces [2] | keratinocyte adherence on collagen I scaffolds [3] | keratinocyte adherence on titanium surfaces [3]
1 | collagen VI alpha-3 chain: alpha-3 polypeptide chain of collagen type VI (UniProt P12111) | considerably enhanced | considerably enhanced | considerably enhanced | superior coating | considerably enhanced | considerably enhanced | considerably enhanced | superior coating | considerably enhanced | considerably enhanced | considerably enhanced | considerably enhanced
2 | FYLKTYRSQAPVLDAIRRLRLRGGS (FYL25 peptide) | – | – | superior coating | – | – | – | superior coating | – | – | – | – | –
3 | VTTEIRFADSKRKSVLLDKIKNLQVALTSK (VTT30 peptide) | – | – | superior coating | – | – | – | superior coating | – | considerably enhanced | considerably enhanced | considerably enhanced | considerably enhanced
4 | GVRPDGFAHIRDFVSRIVRRLNIGPSKV (GVR28 peptide) | – | – | superior coating | – | – | – | superior coating | – | considerably enhanced | considerably enhanced | considerably enhanced | considerably enhanced
5 | FFLKDFSTKRQIIDAINKVVYKGGR (FFL25 peptide) | – | – | superior coating | – | – | – | superior coating | – | considerably enhanced | considerably enhanced | considerably enhanced | considerably enhanced
6 | SFVARNTFKRVRNGFLMRKVAVFFSNTPTRASP (SFV33 peptide) | considerably enhanced | considerably enhanced | superior coating | – | considerably enhanced | considerably enhanced | superior coating | – | – | – | – | –
